Assay results: PMC5746060, “General and Modular Strategy for Designing Potent, Selective, and Pharmacologically Compliant Inhibitors of Rhomboid Proteases” (Cell Chemical Biology, 2017)
Starred links: 1 amine or outer side, 2 acyl side, 3 side chain; linkers in the order of their positions; H or OH if unused. Non-standard residues stand in square brackets, D forms with d. Residues, ends and D or L forms follow the SMILES beside them. *: point of attachment. NH(4-phenylbutyl) = c1ccc(CCCCN*)cc1; X1 = C[C@H](N[*:1])C(=O)C(=O)[*:2]; NHPhenethyl = c1ccc(CCN*)cc1

Key:
[1] = tested on: about 100 human serine hydrolases; test: EnPlex multiplex ABP competition profiling; type: biochemical; settings: concentration range where the ketoamides inhibit rhomboid proteases
Procedure: (§1) Figure 5 Selectivity of Peptidyl Ketoamides (A) Selectivity of compounds 9, 10, and 11 for nine rhomboid proteases was profiled using activity-based probe competition assay at 50 μM and 0.5 μM concentration. The upper limit of enzyme concentration was 0.4 μM. (B) Selectivity of compounds 9, 10, and 11 against human serine hydrolases was analyzed using EnPlex as described ([Bachovchin et al., 2014]).
(§2) We next examined peptidyl ketoamides for their possible off-target effects on other serine proteases. To get a representative picture of the selectivity of peptidyl ketoamides, we employed a recently developed EnPlex technology, which allows multiplex analysis of ABP competition with about 100 human serine hydrolases, mostly proteases ([Bachovchin et al., 2014]).
(§3) For inhibitor selectivity profiling against rhomboid proteases ([Wolf et al., 2015]), 400 ng of a purified protein preparation of E. coli GlpG was diluted in 30 μL of reaction buffer (20 mM HEPES, pH 7.4, with 0.05% (w/v) DDM). For other rhomboids, amounts were taken that gave similar labeling intensity during profiling. Rhomboids were incubated for 30 min at room temperature with the indicated concentration of compound, 100 μM DCI as positive control, or an equal volume of DMSO as negative control. Next, TAMRA-FP serine hydrolase probe (Thermo Fisher #88318) was added to a final concentration of 1 ìM and incubated for 2 h at 37°C in the dark. The reaction was stopped by addition of 4× Laemmli buffer and the reaction mixture was resolved on 15% SDS-PAGE. Gels were scanned on a Typhoon Trio+ and analyzed using ImageJ. The intensity of each rhomboid protease band calculated by ImageJ was normalized against its corresponding DMSO-treated counterpart (100% activity) to indicate the residual activity left after inhibition. The remaining activity was used to calculate the percentage of inhibition depicted in the heatmap. Selectivity profiles against human serine hydrolases were determined by EnPlex as described previously ([Bachovchin et al., 2014]).

[2] = target: dipeptidylpeptidase 7 (DPP7) (Homo sapiens, UniProt Q9UHL4); test: EnPlex multiplex ABP competition profiling; type: biochemical; settings: off-target hit; concentration range where they inhibit rhomboid proteases
Procedure: as §1, §2, §3

[3] = target: T1, Escherichia coli rhomboid GlpG (Escherichia coli, UniProt P09391); test: in vitro GlpG inhibition assay with fluorogenic transmembrane peptide substrate (apparent IC50); type: biochemical
T1 construct: made in house; host or cells: E. coli C41(DE3)
Source text: To gain insight into these preferences and their possible interactions, we have generated tetra- and pentapeptidyl chloromethylketones (CMK or cmk henceforth) harboring amino acids preferred in positions P5 to P1 by the Escherichia coli rhomboid GlpG (GlpG henceforth), using the sequence background of the Providencia TatA ([Stevenson et al., 2007]), represented by the parent compound Ac-IATA-cmk. We measured the inhibitory properties of this series of compounds using a newly developed in vitro assay employing a fluorogenic transmembrane peptide substrate ([Ticha et al., 2017]) that faithfully represents a native rhomboid substrate.
Figure 1 The Potency of Substrate-Derived Inhibitors Can be Improved by Modifying the Amino acid Sequence of the P5 to P1 Region (A) The parent inhibitor Ac-IATA-cmk was modified by introducing strongly preferred amino acids ([Zoll et al., 2014]) into the P4, P3, P2, and P5 positions to yield the listed compounds. Their apparent IC50 values were measured with 1 hr preincubation using 10 μM fluorogenic substrate KSp35 and 0.05% (w/v) DDM. The reported values are best-fit means with SD representative of 2–3 measurements. (B) The sequence-optimized peptidyl chloromethylketones were soaked into the native crystals of GlpG and structures of the complexes were solved by X-ray diffraction (for statistics, see Table S1). […] Note that in the Ac-RVRHA-cmk structure (right), the side chain of the Arg residue in the P5 position of the inhibitor has not been modeled due to poor or missing electron density peaks. (C) Interactions of RVRHA-cmk with GlpG were analyzed by Ligplot+ ([Laskowski and Swindells, 2011]). Ligands are shown as thick sticks with carbons in green, proteins as thin sticks with carbons in gray, hydrogen bonds as yellow dashed lines, and amino acids involved in van der Waals contacts are highlighted as transparent surfaces. The inhibitor forms covalent bonds with S201 and H254 via the chloromethylketone warhead, and it hydrogen bonds with the backbone of residues 196–198 from the L3 loop and residues 248–250 from the L5 loop. van der Waals contacts with the inhibitor are formed by the residues from the L3 loop of GlpG, by S193 and Q189 from TMD3, and by F146 and M120 from the L1 loop that pack against the Val side chain of the P4 position of the inhibitor, as observed previously ([Zoll et al., 2014]). (D) The conformations of peptide inhibitors bound to the active site of GlpG were compared by performing structural alignment of the complexes of VRHAcmk (PDB: 5MT7), RVRHAcmk (PDB: 5MT8), IATAcmk (PDB: 4QO2), and VRMAcho (PDB: 5F5B) in PyMOL ([Schrodinger, 2012]). […] The backbone of the ligands in all complexes has virtually identical conformation with the exception of the distortion of the oxyanion by the chloromethylketone, and the biggest differences are found in the conformation of the P2 side chain, which is not surprising, because almost any side chain can be accommodated in this position ([Zoll et al., 2014]). TEXT PRINTED IN THE PICTURE: (A) AcIATAcmk: IC50 (μM): 213 | (A) AcVATAcmk: IC50 (μM): 450 | (A) AcIAHAcmk: IC50 (μM): 200 | (A) AcIRTAcmk: IC50 (μM): 84 | (A) AcVRHAcmk: IC50 (μM): 27 | (A) AcRVRHAcmk: IC50 (μM): 8
Figure 2 A Screen of Electrophilic Warheads for the Inhibition of Rhomboid Proteases The optimized parent sequence Ac-RVRHA was linked to electrophilic warheads commonly used for targeting serine proteases (reviewed in [Hedstrom, 2002], [Walker and Lynas, 2001]). The apparent IC50 values of the compounds were measured in 0.05% DDM using 10 μM substrate KSp35 ([Ticha et al., 2017]) with 1 hr preincubation. Given are the mean values of 2–3 measurements. […]

EcGlpG = target: T2, EcGlpG (Escherichia coli, UniProt P09391); test: activity-based probe competition assay, rhomboid panel; type: biochemical, E. coli; settings: 50 μM and 0.5 μM; outcompeted the ABP even at 500 nM
T2 construct: made in house; host or cells: E. coli C41(DE3)
Source text: Any enzyme inhibitors to be used as specific tools for cell biology or as starting points for drug development must show sufficient level of selectivity toward their intended target. This is particularly important for compounds that react with the catalytic nucleophile common to many serine hydrolases. […] To map the selectivity of peptidyl ketoamides more objectively and widely, we employed activity-based probe (ABP) competition assays that enable a more general and substrate-independent measurement of inhibitory potency, because they rely solely on the competition between a fluorescently labeled activity-based probe and the tested inhibitor ([Nguyen et al., 2015], [Serim et al., 2012]). […]
Figure 5 Selectivity of Peptidyl Ketoamides (A) Selectivity of compounds 9, 10, and 11 for nine rhomboid proteases was profiled using activity-based probe competition assay at 50 μM and 0.5 μM concentration. […] (B) Selectivity of compounds 9, 10, and 11 against human serine hydrolases was analyzed using EnPlex as described ([Bachovchin et al., 2014]).
For inhibitor selectivity profiling against rhomboid proteases ([Wolf et al., 2015]), 400 ng of a purified protein preparation of E. coli GlpG was diluted in 30 μL of reaction buffer (20 mM HEPES, pH 7.4, with 0.05% (w/v) DDM). […] Gels were scanned on a Typhoon Trio+ and analyzed using ImageJ. […]

T2 sequence (P09391 whole entry): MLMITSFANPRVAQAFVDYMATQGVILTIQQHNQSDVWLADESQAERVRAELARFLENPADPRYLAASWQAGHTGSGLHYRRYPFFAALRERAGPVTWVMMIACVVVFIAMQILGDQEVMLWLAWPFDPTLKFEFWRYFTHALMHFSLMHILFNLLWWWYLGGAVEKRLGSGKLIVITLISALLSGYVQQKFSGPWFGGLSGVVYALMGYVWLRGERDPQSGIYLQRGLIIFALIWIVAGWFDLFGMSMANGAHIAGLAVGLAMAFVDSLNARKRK
T1 sequence (P09391 whole entry): as above

| SMILES | inhibition of human serine hydrolases (EnPlex selectivity profile) [1] | inhibition of DPP7 (EnPlex) [2] | fold lower IC50 than the parent compound 1 ([3]; ratio of apparent IC50 values) | competition with ABP labeling of EcGlpG (EcGlpG) | IC50 ([3]; 1 hr preincubation, 10 μM fluorogenic substrate KSp35, 0.05% (w/v) DDM) [nM] |
| --- | --- | --- | --- | --- | --- |
| CC(=O)N[C@@H](CCCNC(=N)N)C(=O)N[C@H](C(=O)N[C@@H](CCCNC(=N)N)C(=O)N[C@@H](Cc1c[nH]cn1)C(=O)N[C@@H](C)C(=O)C(=O)NCCCCc1ccccc1)C(C)C [compound 11, Ac-RVRHA-CONH-phenylbutyl] (Ac-RVRH[X1]-{NH(4-phenylbutyl)}) | fail to inhibit most of the tested human serine hydrolases | the sequence related dipeptidylpeptidase 7 (DPP7) | about 1,000 fold | potently competed |  |
| CC(=O)N[C@@H](CCCNC(=N)N)C(=O)N[C@H](C(=O)N[C@@H](CCCNC(=N)N)C(=O)N[C@@H](Cc1c[nH]cn1)C(=O)N[C@@H](C)C(=O)C(=O)NCCc1ccccc1)C(C)C [compound 9, Ac-RVRHA-CONH-phenylethyl] (Ac-RVRH[X1]-NHPhenethyl) | fail to inhibit most of the tested human serine hydrolases | the sequence related dipeptidylpeptidase 7 (DPP7) |  | potently competed | 440 |
